Results: BindingDB's records for doi:10.1021/jm8011036 (Glaxosmithkline, 2008)

Molecular target: Casein kinase I isoform alpha (Homo sapiens, UniProt P48729)
Assay: Binding affinity to human CK1alpha2

Casein kinase I isoform alpha, sequence (P48729 whole entry, canonical isoform): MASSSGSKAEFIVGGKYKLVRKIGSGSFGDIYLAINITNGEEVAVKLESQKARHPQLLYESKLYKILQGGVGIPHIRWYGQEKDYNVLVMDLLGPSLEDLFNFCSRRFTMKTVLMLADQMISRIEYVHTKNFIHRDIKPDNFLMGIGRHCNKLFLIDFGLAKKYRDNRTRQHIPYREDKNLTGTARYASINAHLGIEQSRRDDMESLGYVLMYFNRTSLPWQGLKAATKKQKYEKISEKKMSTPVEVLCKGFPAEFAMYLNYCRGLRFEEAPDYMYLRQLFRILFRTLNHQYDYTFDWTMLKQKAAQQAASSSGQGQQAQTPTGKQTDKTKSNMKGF

CC(=O)c1c(-c2ccncc2)[nH]c(-c2ccncc2)c1C [1-(4-methyl-2,5-di(pyridin-4-yl)-1H-pyrrol-3-yl)ethanone]
Kd: 225 nM
